Reference: patent US6660722B2, “Therapeutical treatments” (Laboratoires Goemar S.A., priority 2001, dated 2003)

What was measured:
[1] = tested on: target cells of tumor cell line YAC-1; assay: in vitro cytotoxicity assay of NK cells (mouse splenocytes pre-treated with glucan) on YAC-1 target cells, CYTOTOX 96 LDH release; assay type: cell-based, Balb/c mice; design: stimulated NK cells more cytotoxic than the control: concentration or dose not given beside the values; conditions: for NK cell killing more active than BEI: versus BEI-stimulated cell killing; for NK cell killing more active than lentinan: versus Lentinan-stimulated NK cell killing; for stimulated NK cells more cytotoxic than the control: versus unstimulated NK cells
Experimental: In that respect, Applicants first carried out an in vitro cytotoxicity assay on spleen cells isolated from spleen of Balb/c mice by standard methods.
These tests were conducted to evaluate the effects of soluble laminarin on the cytotoxicity of NK (Natural Killer) cells of mouse and to compare these effects with those of two known glucans, ie.
The spleens isolated from the above said Balb/c mice were placed into Petri dishes containing RPMI 1640 medium obtained from Life Technologies USA, supplemented with 5% by weight of FCS (fetal calf serum from Life Technologies USA). The spleens were cut into small pieces and a suspension was made by pressing the minced spleens against the bottom of Petri dishes containing PBS (Phosphate Buffered Saline obtained from Biowhitaker Inc,8830 Biggsford Road, Walkersville, Md. 21793 USA). The thus obtained pieces of tissue were gently teased over stainless steel screens using a plunger of a 5-ml syringe. Large debris and cell clumps were removed by layering the cell suspension over 3 ml of heat-inactivated FCS for 10 minutes on ice. After elimination of erythrocytes by incubation during 10 seconds in distilled water and five washes in cold PBS, the thus obtained cells which are called splenocytes, were resuspended in PBS and counted.
The evaluation of the cytotoxicity of these cell suspensions was conducted by suing a non radioactive cytotoxicity assay marketed under the trademark CYTOTOX 96 by Promega, Madison, Wis., USA.
For these experiments, the splenocytes which are also called “effector cells” were pre-treated during 30 minutes by mixing the suspensions containing them respectively with soluble laminarin, with lentinan and with BEI glucan; the mixtures were subsequently incubated with suspensions of target cells of tumor cell line YAC-1 which is known to be relatively […] to normal inactivated N K cells.
The specificity of the assay was established by using the following three different ratios effector cells/target cells denoted ET: 10:1, 50:1 and 100:1.
For each ratio, 3 counts were carried out and experiments were repeated 3 times on 3 different days.
Controls consisted of effector cells incubated only with PBS.
More particularly, the above cell suspensions of splenocytes (effector cells) were diluted to 10^6 cells/ml and placed in individual wells of V-shaped 96-well microplates at a concentration of 0.1 ml/well.
Laminarin, lentinan and BEI glucan which occur in the form of powders, were added after dissolution in PBS at an identical concentration of 2 μg/ml in PBS and the plates were incubated for 30 minutes at 37° C. in an humidified CO2 incubator.
After incubation, the plates i.e. the incubated cells contained in the wells were washed three times with RPMI 1640 medium, and 50 μl of the suspension of target cell line YAC-1 were added in each well, respecting the above “effector cells/target cells” ratios or E T: 10:1, 50:1 and 100:1.
For each of these ratios, 3 individual wells were used, the number of target cells being respectively 10^4,2×10^3 and 1×10^3.
In addition, target cells for spontaneous release control, target cells for maximum release control and effector cells release control were introduced into appropriate wells, i.e. 3 individual wells for each concentration used.
Basically, it is necessary to obtain the values of spontaneous release from both target and effector cells, and these values serve as a background. The maximum release control serves as 100%.
After spinning the plates at 250 g for 5 minutes in a centrifuge, the plates were incubated for 4 hours at 35° C. in a humidified CO2 incubator.
For evaluating the cytotoxicity activity of the effector or N K cells, procedure was as follows, using the instructions of the manufacturer PROMEGA.
A quantity of 10 μl of lysis solution, included in the Kit, was added 45 min before the end of incubation into appropriate control wells, i.e. into wells with maximum release control. […]

[2] = tested on: mouse breast cancer cell line 64 Ptas; assay: tumor growth in vivo in mice inoculated with breast cancer cells; conditions: daily intraperitoneal injection during 14 days; doses 100 and 250 μg per injection (dose of the value not stated)
Experimental: The above said data have been confirmed by additional experiments where the effects of soluble laminarin on tumor growth in vivo were evaluated; yeast derived glucan BEI was used for comparison.
In these additional experiments, mice were inoculated with mouse breast cancer cell line 64 Ptas. Experimental treatment was achieved by daily intraperitoneal injection during 14 days of two different doses of soluble laminarin and BEI diluted in PBS; the said two different doses were respectively 100 and 250 μg of laminarin per injection.
At the end of the 14 days treatment, the mice were killed, tumors were removed and weighted.

oral LD 50 in rats = assay type: in vivo; conditions: given orally in rats
Experimental: Its LD 50 is high and was determined as to be greater than 2000 mg/Kg given orally in rats; furthermore there are no special handling requirements.

[3] = solubility of soluble laminarin; assay type: physicochemical

Q: For laminarin [soluble laminarin], which “NK cell killing more active than BEI” value ([1]; ET 10:1) is on record?
A: 132%

Q: And the “NK cell killing more active than lentinan” value ([1]; ET 10:1)?
A: 133%

Q: What about the “stimulated NK cells more cytotoxic than the control” value ([1]; ET 10:1) of the same substance?
A: 245%

Q: And the “NK cell killing more active than BEI” value ([1]; ET 50:1)?
A: 122%

Q: And the “NK cell killing more active than lentinan” value ([1]; ET 50:1)?
A: 123%

Q: And the “stimulated NK cells more cytotoxic than the control” value ([1]; ET 50:1)?
A: 196%

Q: And the “NK cell killing more active than BEI” value ([1]; ET 100:1)?
A: 129%

Q: And the “NK cell killing more active than lentinan” value ([1]; ET 100:1)?
A: 130%

Q: And the “stimulated NK cells more cytotoxic than the control” value ([1]; ET 100:1)?
A: 180%

Q: And the “weight of the tumors with respect to the weight of the tumors treated with the control” value [2]?
A: 28%

Q: And the “LD 50” value (oral LD 50 in rats)?
A: greater than 2000 mg/Kg

Q: And the “solubility in ethanol, 2-propanol and acetone” value ([3]; ethanol, 2-propanol and acetone)?
A: substantially insoluble

Q: And the water-soluble ([3]; water)?
A: up to 60 g/l
